Here are results for 1 substance from PMC5663982, “Imaging the Antistaphylococcal Activity of CATH-2: Mechanism of Attack and Regulation of Inflammatory Response” (mSphere, 2017).

For this assay, the target named is T1, CATH-2 (chicken cathelicidin-2) (Gallus gallus, UniProt Q2IAL7).
T1 construct: gene CATHL2; Fmoc synthesis, unlabelled; cut from the cathelicidin-2 precursor
T1 sequence (Q2IAL7 128-153): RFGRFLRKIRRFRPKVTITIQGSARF
The assay is described as follows: isothermal titration calorimetry. Particulars: PBS, 1.5% ethanol, 20 °C; 400 µM CATH-2 titrated into 200 µM cardiolipin (Sigma-Aldrich, source and acyl chains not told); n = 2, SEM; lipid suspension. It is filed as binding. An excerpt: isothermal titration calorimetry on CATH-2 (chicken cathelicidin-2)
In general terms: Isothermal titration calorimetry measures the heat released or taken up as one component is titrated into another.

Substance cardiolipin came in with a Kd of 72.1 ± 57.1 nM.

A word on the Kd: it is the concentration at which binding is half-saturated. Lower therefore signals a tighter complex.
